Source: patent US20250230193A1, “CYCLIC COMPOUND HAVING SELECTIVE KRAS INHIBITORY EFFECT ON HRAS AND NRAS” (CHUGAI SEIYAKU KABUSHIKI KAISHA, priority 2022, published 2025)

Assays:
[1] = target: GDP-bound HRAS wild-type protein (Homo sapiens, UniProt P01112); test: Binding to HRAS by surface plasmon resonance (SPR), Single Cycle Kinetics; settings: KD ratio HRAS/KRAS, SPR
[2] = target: GDP-bound NRAS wild-type protein (Homo sapiens, UniProt P01111); test: Binding to NRAS by surface plasmon resonance (SPR), Single Cycle Kinetics; settings: KD ratio NRAS/KRAS, SPR
Sequence of GDP-bound NRAS wild-type protein (P01111 whole entry): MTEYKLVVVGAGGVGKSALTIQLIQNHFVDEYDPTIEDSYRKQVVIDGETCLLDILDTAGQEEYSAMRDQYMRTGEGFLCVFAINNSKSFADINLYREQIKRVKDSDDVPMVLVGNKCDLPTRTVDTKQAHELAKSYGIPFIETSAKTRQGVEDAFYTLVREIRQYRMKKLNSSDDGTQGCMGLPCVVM

Sequence of GDP-bound HRAS wild-type protein (P01112 whole entry): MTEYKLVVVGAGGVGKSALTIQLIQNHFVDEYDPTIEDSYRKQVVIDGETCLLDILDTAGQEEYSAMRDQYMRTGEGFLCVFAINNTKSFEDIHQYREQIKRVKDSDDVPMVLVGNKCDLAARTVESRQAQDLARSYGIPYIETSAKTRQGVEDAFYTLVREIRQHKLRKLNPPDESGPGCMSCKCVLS

| SMILES | HRAS/KRAS (ratio of KD value with respect to GDP-bound HRAS wild-type protein to KD value with respect to KRAS) [1] | NRAS/KRAS (ratio of KD value with respect to GDP-bound NRAS wild-type protein to KD value with respect to KRAS) [2] |
| --- | --- | --- |
| CCO[C@@H]1C[C@H]2C(=O)NC3(CCC3)C(=O)N(C)[C@@H](C3CCCC3)C(=O)N(C)[C@H](C(=O)N(C)C)CC(=O)N(C)C[C@@H](C)C(=O)N[C@@H]([C@@H](C)CC)C(=O)N(C)CC(=O)N(C)[C@H]3CCCCN(C3=O)[C@@H](Cc3ccc(C(F)(F)F)cc3)C(=O)N(C)CC(=O)N[C@@H](CCc3cc(F)c(C(F)(F)F)c(F)c3)C(=O)N2C1 [PP0706] | B (a compound having 3 or more and less than 10 is denoted as B) | B (a compound having 3 or more and less than 10 is denoted as B) |
| CCO[C@@H]1C[C@H]2C(=O)NC3(CCC3)C(=O)N(C)[C@@H](C3CCCC3)C(=O)N(C)[C@H](C(=O)N3CCOCC3)CC(=O)N(C)[C@@H](CC)C(=O)N[C@@H]([C@@H](C)CC)C(=O)N(C)CC(=O)N(C)[C@H]3CCCCN(C3=O)[C@@H](Cc3ccc(C(F)(F)F)cc3)C(=O)N(C)CC(=O)N[C@@H](CCc3cc(F)c(C(F)(F)F)c(F)c3)C(=O)N2C1 [PP0708] | B (a compound having 3 or more and less than 10 is denoted as B) | B (a compound having 3 or more and less than 10 is denoted as B) |
| CCC[C@H]1C(=O)N[C@@H]([C@@H](C)CC)C(=O)N(C)CC(=O)N(C)[C@H]2CCCCN(C2=O)[C@@H](Cc2ccc(C(F)(F)F)cc2)C(=O)N(C)CC(=O)N[C@@H](CCc2cc(F)c(C(F)(F)F)c(F)c2)C(=O)N2C[C@H](OCC)C[C@H]2C(=O)NC2(CCC2)C(=O)N(C)[C@@H](C2CCCC2)C(=O)N(C)[C@H](C(=O)N2CCOCC2)CC(=O)N1C [PP0709] | B (a compound having 3 or more and less than 10 is denoted as B) | C (A compound having a KD ratio of 0.1 or more and less than 3 is denoted as C) |
| C=CC[C@H]1C(=O)N[C@@H]([C@@H](C)CC)C(=O)N(C)CC(=O)N(C)[C@H]2CCCCN(C2=O)[C@@H](Cc2ccc(C(F)(F)F)cc2)C(=O)N(C)CC(=O)N[C@@H](CCc2cc(F)c(C(F)(F)F)c(F)c2)C(=O)N2C[C@H](OCC)C[C@H]2C(=O)NC2(CCC2)C(=O)N(C)[C@@H](C2CCCC2)C(=O)N(C)[C@H](C(=O)N2CCOCC2)CC(=O)N1C [PP0710] | B (a compound having 3 or more and less than 10 is denoted as B) | C (A compound having a KD ratio of 0.1 or more and less than 3 is denoted as C) |
| C#CC[C@H]1C(=O)N[C@@H]([C@@H](C)CC)C(=O)N(C)CC(=O)N(C)[C@H]2CCCCN(C2=O)[C@@H](Cc2ccc(C(F)(F)F)cc2)C(=O)N(C)CC(=O)N[C@@H](CCc2cc(F)c(C(F)(F)F)c(F)c2)C(=O)N2C[C@H](OCC)C[C@H]2C(=O)NC2(CCC2)C(=O)N(C)[C@@H](C2CCCC2)C(=O)N(C)[C@H](C(=O)N2CCOCC2)CC(=O)N1C [PP0711] | B (a compound having 3 or more and less than 10 is denoted as B) | C (A compound having a KD ratio of 0.1 or more and less than 3 is denoted as C) |
| CCO[C@@H]1C[C@H]2C(=O)NC3(CCC3)C(=O)N(C)[C@@H](C3CCCC3)C(=O)N(C)[C@H](C(=O)N3CCOCC3)CC(=O)N(C)[C@@H](CC3CC3)C(=O)N[C@@H]([C@@H](C)CC)C(=O)N(C)CC(=O)N(C)[C@H]3CCCCN(C3=O)[C@@H](Cc3ccc(C(F)(F)F)cc3)C(=O)N(C)CC(=O)N[C@@H](CCc3cc(F)c(C(F)(F)F)c(F)c3)C(=O)N2C1 [PP0712] | C (A compound having a KD ratio of 0.1 or more and less than 3 is denoted as C) | C (A compound having a KD ratio of 0.1 or more and less than 3 is denoted as C) |
| CCO[C@@H]1C[C@H]2C(=O)NC3(CCC3)C(=O)N(C)[C@@H](C3CCCC3)C(=O)N(C)[C@H](C(=O)N3CCOCC3)CC(=O)N(C)[C@@H](CC3CCC3)C(=O)N[C@@H]([C@@H](C)CC)C(=O)N(C)CC(=O)N(C)[C@H]3CCCCN(C3=O)[C@@H](Cc3ccc(C(F)(F)F)cc3)C(=O)N(C)CC(=O)N[C@@H](CCc3cc(F)c(C(F)(F)F)c(F)c3)C(=O)N2C1 [PP0713] | B (a compound having 3 or more and less than 10 is denoted as B) | C (A compound having a KD ratio of 0.1 or more and less than 3 is denoted as C) |
| CCO[C@@H]1C[C@H]2C(=O)NC3(CCC3)C(=O)N(C)[C@@H](C3CCCC3)C(=O)N(C)[C@H](C(=O)N3CCOCC3)CC(=O)N(C)[C@@H](CC(C)(C)C)C(=O)N[C@@H]([C@@H](C)CC)C(=O)N(C)CC(=O)N(C)[C@H]3CCCCN(C3=O)[C@@H](Cc3ccc(C(F)(F)F)cc3)C(=O)N(C)CC(=O)N[C@@H](CCc3cc(F)c(C(F)(F)F)c(F)c3)C(=O)N2C1 [PP0714] | B (a compound having 3 or more and less than 10 is denoted as B) | C (A compound having a KD ratio of 0.1 or more and less than 3 is denoted as C) |
| CCO[C@@H]1C[C@H]2C(=O)NC3(CCC3)C(=O)N(C)[C@@H](C3CCCC3)C(=O)N(C)[C@H](C(=O)N3CCOCC3)CC(=O)N(C)[C@@H](CC3CCCC3)C(=O)N[C@@H]([C@@H](C)CC)C(=O)N(C)CC(=O)N(C)[C@H]3CCCCN(C3=O)[C@@H](Cc3ccc(C(F)(F)F)cc3)C(=O)N(C)CC(=O)N[C@@H](CCc3cc(F)c(C(F)(F)F)c(F)c3)C(=O)N2C1 [PP0715] | B (a compound having 3 or more and less than 10 is denoted as B) | C (A compound having a KD ratio of 0.1 or more and less than 3 is denoted as C) |
| CCO[C@@H]1C[C@H]2C(=O)NC3(CCC3)C(=O)N(C)[C@@H](C3CCCC3)C(=O)N(C)[C@H](C(=O)N3CCOCC3)CC(=O)N(C)[C@@H](CC3CCCCC3)C(=O)N[C@@H]([C@@H](C)CC)C(=O)N(C)CC(=O)N(C)[C@H]3CCCCN(C3=O)[C@@H](Cc3ccc(C(F)(F)F)cc3)C(=O)N(C)CC(=O)N[C@@H](CCc3cc(F)c(C(F)(F)F)c(F)c3)C(=O)N2C1 [PP0716] | B (a compound having 3 or more and less than 10 is denoted as B) | C (A compound having a KD ratio of 0.1 or more and less than 3 is denoted as C) |
| CCO[C@@H]1C[C@H]2C(=O)NC3(CCC3)C(=O)N(C)[C@@H](C3CCCC3)C(=O)N(C)[C@H](C(=O)N3CCOCC3)CC(=O)N(C)[C@@H](Cc3cccnc3)C(=O)N[C@@H]([C@@H](C)CC)C(=O)N(C)CC(=O)N(C)[C@H]3CCCCN(C3=O)[C@@H](Cc3ccc(C(F)(F)F)cc3)C(=O)N(C)CC(=O)N[C@@H](CCc3cc(F)c(C(F)(F)F)c(F)c3)C(=O)N2C1 [PP0718] | B (a compound having 3 or more and less than 10 is denoted as B) | C (A compound having a KD ratio of 0.1 or more and less than 3 is denoted as C) |
| CCO[C@@H]1C[C@H]2C(=O)NC3(CCC3)C(=O)N(C)[C@@H](C3CCCC3)C(=O)N(C)[C@H](C(=O)N3CCOCC3)CC(=O)N(C)[C@@H](COC)C(=O)N[C@@H]([C@@H](C)CC)C(=O)N(C)CC(=O)N(C)[C@H]3CCCCN(C3=O)[C@@H](Cc3ccc(C(F)(F)F)cc3)C(=O)N(C)CC(=O)N[C@@H](CCc3cc(F)c(C(F)(F)F)c(F)c3)C(=O)N2C1 [PP0719] | B (a compound having 3 or more and less than 10 is denoted as B) | C (A compound having a KD ratio of 0.1 or more and less than 3 is denoted as C) |
| CCO[C@@H]1C[C@H]2C(=O)NC3(CCC3)C(=O)N(C)[C@@H](C3CCCC3)C(=O)N(C)[C@H](C(=O)N3CCOCC3)CC(=O)N(C)[C@@H](CCOC)C(=O)N[C@@H]([C@@H](C)CC)C(=O)N(C)CC(=O)N(C)[C@H]3CCCCN(C3=O)[C@@H](Cc3ccc(C(F)(F)F)cc3)C(=O)N(C)CC(=O)N[C@@H](CCc3cc(F)c(C(F)(F)F)c(F)c3)C(=O)N2C1 [PP0720] | B (a compound having 3 or more and less than 10 is denoted as B) | C (A compound having a KD ratio of 0.1 or more and less than 3 is denoted as C) |
| CCO[C@@H]1C[C@H]2C(=O)NC3(CCC3)C(=O)N(C)[C@@H](C3CCCC3)C(=O)N(C)[C@H](C(=O)N3CCOCC3)CC(=O)N(C)C[C@@H](C)C(=O)N[C@@H]([C@@H](C)CC)C(=O)N(C)CC(=O)N(C)[C@H]3CCCCN(C3=O)[C@@H](Cc3ccc(C(F)(F)F)cc3)C(=O)N(C)CC(=O)N[C@@H](CCc3cc(F)c(C(F)(F)F)c(F)c3)C(=O)N2C1 [PP0721] | B (a compound having 3 or more and less than 10 is denoted as B) | B (a compound having 3 or more and less than 10 is denoted as B) |
| CCO[C@@H]1C[C@H]2C(=O)NC3(CCC3)C(=O)N(C)[C@@H](C3CCCC3)C(=O)N(C)[C@H](C(=O)N3CCOCC3)CC(=O)N(C)C(C)(C)C(=O)N[C@@H]([C@@H](C)CC)C(=O)N(C)CC(=O)N(C)[C@H]3CCCCN(C3=O)[C@@H](Cc3ccc(C(F)(F)F)cc3)C(=O)N(C)CC(=O)N[C@@H](CCc3cc(F)c(C(F)(F)F)c(F)c3)C(=O)N2C1 [PP0722] | B (a compound having 3 or more and less than 10 is denoted as B) | C (A compound having a KD ratio of 0.1 or more and less than 3 is denoted as C) |
